Where a SMILES comes first, the peptide text is derived from it. Bridges are numbered along the chain shown (N, C = ends).
Test system: CT26 tumors
Assay: In vivo anti-tumor evaluation, CT26 subcutaneous allografts
Parameters: species or system BALB/cCrSlc female mice
Conditions: Fig 2A, KS-133 30 μg/mouse s.c. daily
Procedure: All experimental procedures that involved animals and their care were conducted in compliance with the Guide for the Care and Use of Laboratory Animals and ARRIVE guidelines. These animal experiments were approved by the Animal Care and Use Committee of Kagawa University (approval No. 21650) and conducted at Kagawa University in accordance with the guidelines. To establish subcutaneous allograft tumors, CT26 cells (1 × 10^5) were subcutaneously injected into the left groin region of BALB/cCrSlc female mice (6 weeks old; Japan SLC, Inc., Shizuoka, Japan) under isoflurane anesthesia. […] The tumor growth rate was recorded on days 1, 7, 14, and 21 by measuring the major and minor axes with a digital caliper. […]
Fig 2 Anti-tumor effects of KS-133 and KS-133 NPs with or without anti-PD-1 antibody in mice bearing CT26 subcutaneous allografts. […] (A) Anti-tumor efficacy of KS-133 (n = 9–10 mice per group, expressed as the mean ± SEM, *p < 0.01 and **p < 0.001 vs. vehicle control by two-way ANOVA). […] (B) Anti-tumor efficacy of KS-133 NPs (n = 11 mice per group, expressed as the mean ± SEM, *p < 0.05 and **p < 0.001 vs. vehicle control by two-way ANOVA). […] (C) Anti-tumor efficacy of KS-133 NPs and KS-133(P3S) NPs with an anti-PD-1 antibody (n = 6–8 mice per group, expressed as the mean ± SEM, *p < 0.01 and **p < 0.001 vs. Vehicle control by two-way ANOVA). […]

## CC[C@H](C)[C@H](NC(=O)[C@H](CC(C)C)NC(=O)[C@@H]1CC(=O)NCCCC[C@@H]2NC(=O)[C@@H]3CCCN3C(=O)[C@H](CC(C)C)NC(=O)[C@H](Cc3ccc(O)cc3)NC(=O)[C@@H]3CCCN3C(=O)[C@@H]3CCCN3C(=O)[C@@H](NC(C)=O)CSSC[C@H](NC(=O)[C@H](CC(C)C)NC(=O)[C@H](Cc3ccc(O)cc3)NC2=O)C(=O)N1)C(N)=O [KS-133] (Ac-CPPYLPKYLCDLI-NH2; disulfide 1-10; lactam 7-11)
Alone or with anti-PD-1 antibody 200 μg/mouse i.p. three times in a week, combination p < 0.001 vs vehicle
  effect on CT26 tumor growth (in words): tended to suppress CT26 tumor growth
anti-PD-1 antibody 200 μg/mouse i.p. three times in a week, 3 weeks, n = 9–10 mice per group
  tumor volume, control group set as 100%: 66%

— publication PMC10321640, “The VIPR2-selective antagonist KS-133 changes macrophage polarization and exerts potent anti-tumor effects as a single agent and in combination with an anti-PD-1 antibody” (PLOS ONE, 2023)
